Data on 1 compound can be found in BindingDB's records for doi:10.1016/S0960-894X(03)00095-7 (Abbott Laboratories, 2003).

Each structure is given as a SMILES string. pIC50: −log10 of the molar value.

A word on the pIC50: it is the negative decadic logarithm of the IC50, by convention in mol/L.

Assay [1] deals with Geranylgeranyl transferase type-1 subunit beta/Protein farnesyltransferase/geranylgeranyltransferase type-1 subunit alpha (Bos taurus, UniProt P29702+Q5EAD5). Description: GGTase-I Activity Assay. As to conditions: pH 7.5; 37 °C. How it is done:
The in vitro activity of compounds inhibiting GGTase-1 was determined by measuring the transfer of [3H]-geranylgeranylpyrophosphate to substrate Ha-Ras-CVLL. The incorporated radioactivity was quantified by scintillation counting.

Assay [2] addresses Protein farnesyltransferase subunit beta/geranylgeranyltransferase type-1 subunit alpha (Bos taurus, UniProt P29702+P49355). Description: FTase Activity Assay. As to conditions: pH 7.5; 37 °C. Here is the method:
The in vitro activity of compounds inhibiting FTase was determined by measuring the transfer of [3H]-FPP to substrate Ha-Ras-CVLS. The incorporated radioactivity was quantified by scintillation counting.

`CN(Cc1ccc(C#N)cc1)[C@H](Cc1cncn1C)C(=O)N1CCC(C#N)=C(c2cccc3ccccc23)C1` [1-[(2R)-2-{[(4-cyanophenyl)methyl](methyl)amino}-3-(1-methyl-1H-imidazol-5-yl)propanoyl]-5-(naphthalen-1-yl)-1,2,3,6-tetrahydropyridine-4-carbonitrile]: the results for the pIC50 in assay [1] and in assay [2] were 5.80 and 9.04, respectively.
